In PMC9271792 (Frontiers in Endocrinology, 2022):
Like-named read-outs stand apart in the source and are kept apart here. Each block holds one substance with its values, some of them ahead of it.

What was measured:
IGF-1R [1] = conditions: cited from earlier work
IR [2] = conditions: compared to insulin; ref [20], [21]; cited from earlier work
IR [3] = conditions: cited from earlier work
Excerpt: This is similar to the poorly mitogenic S597 peptide, which also promoted slowe ...

IR [4] = conditions: ref [20]; cited from earlier work
mitogenic signalling = conditions: ref [20], cited from earlier work
IGF-1R [5] = target: T1, IGF-1R (Homo sapiens, UniProt P08069); experiment: Kinase receptor activation assay (KIRA), IGF-1R; assay type: cell-based; conditions: 10 min stimulation, P6 cells
T1 construct: expressed in transfected cells; host or cells: P6 cells (BALB/c3T3 mouse fibroblasts overexpressing human IGF-1R); Triton X-100 lysate captured on anti-IGF-1R antibody 24-31

[6] = system: Akt / GSK-3β / S6 phosphorylation in L6 IR-A cells; experiment: Western blot time-course, PI3K/Akt pathway, L6 IR-A; assay type: cell-based, rat cells; human IR-A; conditions: 10 nM; for time to optimal phosphorylation of Akt (Ser473, Thr308) and GSK-3β: maximal up to t = 30 min
Protocol: (§2) R/^-IR-B (80,000 cells/well) or L6 IR-A cells (240,000 cells/well) were seeded in 6-well plates and allowed to grow to confluence (~ 48 hours). Prior to stimulation, cells were serum starved in SFM/1% BSA for 4 h. […] Lysates were scraped from the well, spun at 13,000 rpm for 3 min at 0°C to remove cell debris and stored at -80°C. Lysate protein concentrations were quantified using Bio-Rad DC™ Protein Assay and 20μg of each sample was separated in 10% glycine gels under reducing conditions. Transferred blots were blocked for 1 h at room temperature in TBST containing 3% BSA and probed with primary antibodies (Pathscan Antibody, pAkt(Thr308), pGSK(Ser9), pAS160(Thr642)) in blocking solution (TBST containing 3% BSA) overnight at 4°C. All blots were also probed with anti-β-tubulin as a loading control. Blots were washed six times for 5 min each in TBST then probed with either HRP-conjugated (dose-response) or fluorophore-conjugated (time-course) secondary antibodies for 1 hour at room temperature. The washing was then repeated.
(§3) Dose response blots were developed in ECL reagent according to manufacturer’s instruction and imaged in Fujiflim LAS-4000 Luminescent Image Analyzer. Time course blots were imaged with an Odyssey® CLx Imaging System. All blots were performed at least three times. All data were analysed with LI-COR Image Studio™ software and each band intensity was normalized to tubulin of its respective lane.

[7] = system: ERK 1/2 / p90RSK phosphorylation in L6 IR-A cells; experiment: Western blot time-course, MAPK pathway, L6 IR-A; assay type: cell-based, rat cells; human IR-A; conditions: 10 nM, then reducing between t = 10 – 30 min
Protocol: as §2, §3

IR-A = IR-A receptor internalization; assay type: cell-based, human; conditions: 10 nM; for IR-A internalization (in words): 2 hours post-stimulation; for IR-A remaining on the cell surface: within 2 h, % of surface/total receptor normalised to SFM t = 0
Protocol: All data are the mean ± S.E.M. n = at least 3 independent experiments. Error bars are shown when greater than the size of the symbols.
(§1) Assays were performed in triplicate in at least three independent experiments.

IGF-1R [8] = target: T1, IGF-1R; experiment: Competition binding assay, europium-labelled IGF-I, IGF-1R
Protocol: Results are expressed as a percentage of binding in the absence of competing ligand (%B/B0). […] All data are the mean ± S.E.M. n = at least 3 independent experiments. Error bars are shown when greater than the size of the symbols.
Human IR isoform A, isoform B and IGF-1R were solubilized from R^-IR-A, R^-IR-B and P6 cells, respectively. Briefly, cells were serum starved in serum-free medium (SFM) containing 1% (w/v) BSA for 4 h before lysis in ice-cold lysis buffer (20 mM HEPES, 150 mM NaCl, 1.5mM MgCl2, 10% (v/v) glycerol, 1% (v/v) Triton X-100, 1mM EGTA, and 1 mM phenylmethylsulfonyl fluoride, pH 7.5) for 1 h at 4°C. Lysates were centrifuged for 10 min at 2,200g, and then 100 µL of lysate was added per well to a white Greiner Lumitrac 600 96-well plate (16 h at 4°C) previously coated with anti-IR antibody 83-7 or anti-IGF-1R antibody 24-31 (250 ng/well in bicarbonate buffer, pH 9.2). […] Wells were washed with 20 mM Tris, pH 7.4, 150 mM NaCl (TBS) and 0.1% (v/v) Tween 20 (TBST). Then 100 µl/well DELFIA enhancement solution (PerkinElmer Life Sciences) was added. After 10 min, time-resolved fluorescence was measured using 340-nm excitation and 612-nm emission filters with a BMG Lab Technologies Polarstar fluorometer (Mornington, Australia). Assays were performed in triplicate in at least three independent experiments.

IR-B = experiment: Kinase receptor activation assay (KIRA), IR-B; assay type: cell-based, human; conditions: 10 min stimulation, Eu-PY20 detection
[9] = system: L6 rat skeletal myoblasts overexpressing human IR-A (L6 IR-A cells); experiment: DNA synthesis assay (EdU incorporation); assay type: cell-based; conditions: 18 h, equipotent within fold stated
Protocol: as §1

C57BL6 male mice = experiment: Insulin tolerance test; assay type: in vivo, mouse; conditions: 0.75 IU/kg ip, chow fed mice, non-fasting, 2 hours post-treatment
IR isoform B (IR-B) = target: T2, IR isoform B (IR-B) (Homo sapiens, UniProt P06213); conditions: compared to insulin; ref [21]–[23], [32]; cited from earlier work
T2 construct: expressed in transfected cells; host or cells: R-IR-B cells (IGF-1R knockout mouse embryonic fibroblasts over-expressing human IR-B); Triton X-100 lysate captured on anti-IR antibody 83-7
T2 sequence (P06213 28-758 limits assumed): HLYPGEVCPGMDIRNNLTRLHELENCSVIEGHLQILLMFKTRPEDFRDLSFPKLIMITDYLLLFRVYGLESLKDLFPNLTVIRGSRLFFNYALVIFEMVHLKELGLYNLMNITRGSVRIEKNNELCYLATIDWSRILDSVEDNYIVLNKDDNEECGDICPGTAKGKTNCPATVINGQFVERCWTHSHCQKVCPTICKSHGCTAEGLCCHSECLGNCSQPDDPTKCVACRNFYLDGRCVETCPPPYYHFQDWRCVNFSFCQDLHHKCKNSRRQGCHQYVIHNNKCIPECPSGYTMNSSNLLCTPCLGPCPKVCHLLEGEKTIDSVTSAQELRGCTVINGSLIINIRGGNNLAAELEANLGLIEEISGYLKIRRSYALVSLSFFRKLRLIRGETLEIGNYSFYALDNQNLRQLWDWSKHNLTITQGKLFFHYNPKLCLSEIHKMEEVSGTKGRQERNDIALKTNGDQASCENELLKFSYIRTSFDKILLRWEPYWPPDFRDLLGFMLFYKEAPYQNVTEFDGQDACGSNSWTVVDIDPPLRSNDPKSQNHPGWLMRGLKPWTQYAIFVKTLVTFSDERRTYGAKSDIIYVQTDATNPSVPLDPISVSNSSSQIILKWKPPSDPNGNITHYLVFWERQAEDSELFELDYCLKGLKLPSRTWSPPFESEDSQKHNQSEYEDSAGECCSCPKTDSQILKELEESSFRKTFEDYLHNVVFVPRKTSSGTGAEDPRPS
T2 sequence (P06213 763-1382 partner limits assumed): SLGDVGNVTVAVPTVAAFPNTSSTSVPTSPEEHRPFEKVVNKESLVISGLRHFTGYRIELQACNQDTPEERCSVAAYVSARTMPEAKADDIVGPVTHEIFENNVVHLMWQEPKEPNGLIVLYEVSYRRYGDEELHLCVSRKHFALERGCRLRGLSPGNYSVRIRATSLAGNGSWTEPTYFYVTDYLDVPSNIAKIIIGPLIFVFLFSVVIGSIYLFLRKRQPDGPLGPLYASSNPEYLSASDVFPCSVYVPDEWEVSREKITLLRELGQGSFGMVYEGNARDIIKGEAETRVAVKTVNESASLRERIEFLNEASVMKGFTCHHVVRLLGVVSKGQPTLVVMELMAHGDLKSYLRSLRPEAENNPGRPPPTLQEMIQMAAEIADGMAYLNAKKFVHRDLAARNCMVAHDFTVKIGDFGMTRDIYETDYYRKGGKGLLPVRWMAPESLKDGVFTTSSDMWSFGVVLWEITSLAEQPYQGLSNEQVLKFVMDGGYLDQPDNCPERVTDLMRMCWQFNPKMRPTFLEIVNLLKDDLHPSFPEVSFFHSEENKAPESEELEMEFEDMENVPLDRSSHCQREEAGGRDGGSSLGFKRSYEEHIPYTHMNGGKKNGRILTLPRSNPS

IGF-1R [10] = target: T1, IGF-1R; conditions: % of native insulin; ref [21], [23]; cited from earlier work
IR isoform A (IR-A) = target: T3, IR isoform A (IR-A) (Homo sapiens, UniProt P06213); conditions: compared to insulin; ref [21]–[23], [32]; cited from earlier work
T3 construct: expressed in transfected cells; host or cells: R-IR-A cells (IGF-1R knockout mouse embryonic fibroblasts over-expressing human IR-A); Triton X-100 lysate captured on anti-IR antibody 83-7
T3 sequence (P06213 28-1370 isoform P06213-2 limits assumed): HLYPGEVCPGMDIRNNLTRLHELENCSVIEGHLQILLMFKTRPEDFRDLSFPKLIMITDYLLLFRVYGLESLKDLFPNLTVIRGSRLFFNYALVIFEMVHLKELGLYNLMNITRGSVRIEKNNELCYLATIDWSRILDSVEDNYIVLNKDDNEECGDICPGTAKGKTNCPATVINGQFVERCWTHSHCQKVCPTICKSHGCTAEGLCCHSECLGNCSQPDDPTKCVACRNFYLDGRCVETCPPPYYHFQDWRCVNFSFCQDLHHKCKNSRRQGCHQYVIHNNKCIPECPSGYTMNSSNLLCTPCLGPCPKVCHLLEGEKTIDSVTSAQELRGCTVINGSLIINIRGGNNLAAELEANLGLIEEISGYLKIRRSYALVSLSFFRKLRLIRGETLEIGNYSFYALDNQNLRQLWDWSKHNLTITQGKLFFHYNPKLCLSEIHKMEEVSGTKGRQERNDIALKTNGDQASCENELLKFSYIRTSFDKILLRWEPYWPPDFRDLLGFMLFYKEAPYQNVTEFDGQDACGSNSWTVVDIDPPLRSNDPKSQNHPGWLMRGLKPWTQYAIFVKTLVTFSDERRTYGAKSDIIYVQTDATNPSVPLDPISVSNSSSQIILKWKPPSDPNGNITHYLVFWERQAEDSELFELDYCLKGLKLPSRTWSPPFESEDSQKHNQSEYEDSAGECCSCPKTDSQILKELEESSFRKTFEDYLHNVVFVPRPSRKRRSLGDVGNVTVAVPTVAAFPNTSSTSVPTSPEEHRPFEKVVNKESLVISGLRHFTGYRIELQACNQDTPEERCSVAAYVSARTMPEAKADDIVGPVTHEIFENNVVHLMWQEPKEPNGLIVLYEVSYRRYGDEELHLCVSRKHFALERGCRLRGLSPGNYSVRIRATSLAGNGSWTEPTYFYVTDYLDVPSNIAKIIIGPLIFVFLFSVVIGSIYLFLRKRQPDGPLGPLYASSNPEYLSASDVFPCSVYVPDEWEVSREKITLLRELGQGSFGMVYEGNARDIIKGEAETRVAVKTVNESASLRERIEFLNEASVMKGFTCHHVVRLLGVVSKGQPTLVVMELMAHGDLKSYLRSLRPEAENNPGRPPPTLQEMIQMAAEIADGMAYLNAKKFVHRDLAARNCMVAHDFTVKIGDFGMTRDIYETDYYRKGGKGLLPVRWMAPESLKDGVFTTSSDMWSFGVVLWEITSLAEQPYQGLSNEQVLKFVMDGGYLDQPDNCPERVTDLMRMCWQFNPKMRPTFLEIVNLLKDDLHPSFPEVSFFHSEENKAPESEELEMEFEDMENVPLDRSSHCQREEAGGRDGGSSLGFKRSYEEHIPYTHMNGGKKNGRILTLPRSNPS
T3 sequence (P06213 763-1382 partner limits assumed): as the sequence (P06213 763-1382 partner limits assumed) above

[11] = system: insulin receptor isoform A (IR-A); conditions: compared to native insulin; ref [21]; cited from earlier work

Substance: HisB10Asp insulin [insulin X10]
IGF-1R binding affinity (in words) (IGF-1R [1]; compared to insulin, ref [20], [21]): increased binding affinity for the growth-promoting insulin-like growth factor receptor 1 (IGF-1R)
rate of dissociation from the IR (in words) (IR [2]): reduced rate of dissociation from the IR compared to insulin
phosphorylation of IR-A Tyr960, Tyr1146 and Tyr1322 (in words) (IR [3]; compared to insulin, ref [32]): increased phosphorylation of IR-A Tyr960, Tyr1146 and Tyr1322 compared to insulin
phosphorylation of the IR (in words) (IR [3]; ref [20]): sustained phosphorylation of the IR
receptor internalization (in words) (IR [4]): increased rate of receptor internalization
mitogenic signalling (in words) (mitogenic signalling): enhanced mitogenic signalling

Substance: human insulin
IGF-1R activation (in words) (IGF-1R [5]): equipotent but poorly activated the IGF-1R
kinetics of activation of the PI3K/Akt pathway (in words) ([6]; 0–30 min, p-Akt Ser473, p-Akt Thr308, p-GSK3β, p-S6): essentially the same
time to optimal phosphorylation of Akt (Ser473, Thr308) and GSK-3β [6]: ≤ 20 s
time to maximal phosphorylation of ERK1/2 and p90RSK [7]: 10 min
IR-A internalization (in words) (IR-A): rapidly induced receptor internalization post-stimulation (evident within 10 min)
IR-A remaining on the cell surface (IR-A): 60%

IGF-1R affinity compared to native insulin (IGF-1R [8]; % of native insulin): 480%
IC50 (IGF-1R [8]; competition for europium-labelled IGF-I, solubilized receptor from P6 cells, 16 h at 4°C, mean ± S.E.M., n = 3 or more): 6.71 ± 3.9 nM
IR-B activation (in words) (IR-B): potency similar to native insulin
Substance: insulin glargine
DNA synthesis, potency difference from native insulin [9]: ≤ 2 fold
blood glucose lowering (in words) (C57BL6 male mice): no statistical difference
time to optimal phosphorylation of Akt (Ser473, Thr308) and GSK-3β [6]: ≤ 20 s
time to maximal phosphorylation of ERK1/2 and p90RSK [7]: 10 min
IR-A internalization (in words) (IR-A): rapidly induced receptor internalization post-stimulation (evident within 10 min)
IR-A remaining on the cell surface (IR-A): 60%
IR-B binding, literature range (IR isoform B (IR-B)): 50-85%
IGF-1R affinity, literature range (IGF-1R [10]): 460–650%
IR-A binding, literature range (IR isoform A (IR-A)): 40-86%
IGF-1R binding affinity (in words) (IGF-1R [1]; compared to native insulin, ref [22]): binds to the IGF-1R with higher affinity
mitogenic cell signalling (in words) (mitogenic signalling; compared to native insulin, [23]): equipotent in promoting mitogenic cell signalling
IR-A dissociation kinetics (in words) [11]: dissociation kinetics do not differ from native insulin
